According to PMC8347595, “N-Skatyltryptamines—Dual 5-HT6R/D2R Ligands with Antipsychotic and Procognitive Potential” (Molecules, 2021):
Like-named read-outs stand apart in the source and are kept apart here.

Columns and labels:
CYP3A4 = target: T1, CYP3A4 (Homo sapiens, UniProt P08684); test: CYP3A4 P450-Glo luminescent assay; assay type: in vitro ADME; details: compared to ketoconazole; 0.01 to 25 µM
T1 construct: purchased Promega (Madison, WI, USA)
Experimental: The experiments were provided using commercially available luminescent CYP3A4 P450-Glo™ and CYP2D6 P450-Glo™ tests purchased from Promega (Madison, WI, USA). The enzymatic reactions were conducted in polystyrene, flat-bottom Nunc™ MicroWell™ 96-well microplates (Thermo Scientific, Waltham, MA, USA). The assays were carried out according to the procedures provided by the manufacturer, as described previously. Compounds were tested in triplicate at the final concentrations in a range from 0.01 to 25 µM for both isoforms of CYP450. The references of CYP3A4 and CYP2D6 inhibitors (ketoconazole and quinidine, respectively) were tested in a range from 0.001 to 10 µM. Tested compounds were incubated in 100 mM Tris-HCl buffer separately with CYP3A4 and CYP2D6 membranes and the NADPH Regeneration System for 30 min at room temperature in triplicate. The bioluminescent signal was measured after the addition of the Luciferin Detection Reagent by using a microplate reader EnSpire PerkinElmer (Waltham, MA, USA). Both reagents (NADPH Regeneration System and Luciferin Detection Reagent) were purchased from Promega (Madison, WI, USA).

in vitro = details: PAMPA, pH 7.4
5-HT2AR = 5-HT2AR (Homo sapiens, UniProt P28223); test: Radioligand binding assay, [3H]-ketanserin displacement; set-up: host or cells: CHO-K1; membrane preparation; details: Table 1
5-HT7R = 5-HT7R (Homo sapiens, UniProt P34969); test: Radioligand binding assay, [3H]-5-CT displacement
5-HT1AR = target: T2, 5-HT1AR (Homo sapiens, UniProt P08908); test: Radioligand binding assay, [3H]-8-OH-DPAT displacement
T2 sequence (P08908 1-422): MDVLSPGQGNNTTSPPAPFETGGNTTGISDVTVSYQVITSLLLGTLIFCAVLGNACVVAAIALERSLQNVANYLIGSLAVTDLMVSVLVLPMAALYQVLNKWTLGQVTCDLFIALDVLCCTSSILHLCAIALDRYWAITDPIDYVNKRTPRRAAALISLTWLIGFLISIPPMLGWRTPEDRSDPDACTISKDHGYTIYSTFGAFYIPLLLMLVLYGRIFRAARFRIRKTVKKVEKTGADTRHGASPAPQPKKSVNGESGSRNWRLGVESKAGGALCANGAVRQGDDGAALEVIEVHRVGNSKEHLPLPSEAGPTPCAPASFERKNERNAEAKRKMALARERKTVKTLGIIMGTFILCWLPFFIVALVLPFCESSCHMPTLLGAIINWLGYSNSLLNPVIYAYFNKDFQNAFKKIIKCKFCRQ

D2R [1] = target: T3, D2R (Homo sapiens, UniProt P14416); test: D2R functional assay, antagonist mode (cAMP, HEK293 cells); assay type: cell-based; set-up: expressed in transfected cells
Experimental: The supernatant was aspirated, and the cell pellet was resuspended in stimulation buffer (1 × HBSS, 5 mM HEPES, 0.5 mM IBMX, 0.1% BSA).
The functional properties of compounds were evaluated using the LANCE Ultra cAMP Detection Kit (PerkinElmer). D2 receptors in HEK293 cells are coupled to Gi subtype and decreased cAMP production. […] Each compound was tested in triplicate at eight concentrations (10^−11–10^−4 M).
For quantification of cAMP levels, cells (5 µL) were incubated with 5 µL mixture of compounds (tested ligand and forskolin with 100 nM quinpirole for antagonist binding mode) for 30 min at room temperature in 384-well white opaque microtiter plate (PerkinElmer). After incubation, the reaction was stopped and cells were lysed by the addition of 10 µL working solution (5 µL Eu-cAMP and 5 µL ULight-anti-cAMP). The assay plate was incubated for 1 h at room temperature. Time-resolved fluorescence resonance energy transfer (TR-FRET) signal was detected by an Infinite M1000 Pro (Tecan) using instrument settings from the LANCE Ultra cAMP Detection Kit manual.

D2R [2] = target: T3, D2R; test: Radioligand binding assay, [3H]-raclopride displacement
[3] = for permeability in words: PAMPA
Human Serotonin 5-HT6R = target: T4, Human Serotonin 5-HT6R (Homo sapiens, UniProt P50406); test: 5-HT6R functional assay, antagonistic mode (cAMP induced by 5-CT, 1321N1 cells); assay type: cell-based
T4 construct: host or cells: 1321N1 (frozen recombinant cells)
Experimental: The properties of compounds to inhibit cAMP production induced by a 5-HT6R agonist 5-CT (1000 nM) was evaluated. Compounds were tested in triplicate at eight concentrations (10^−11–10^−4 M). The level of cAMP was measured using frozen recombinant 1321N1 cells expressing the Human Serotonin 5-HT6R (PerkinElmer). Total cAMP was measured using the LANCE cAMP Detection Kit (PerkinElmer), according to the manufacturer’s instructions. For quantification of cAMP levels, 2000 cells/well ([…]) were incubated with a mixture of compounds ([…]) for 30 min at room temperature in a 384-well white opaque microtiter plate. After incubation, the reaction was stopped and cells were lysed by the addition of […] of working solution ([…] ULight-anti-cAMP) for 1 h at room temperature. Time-resolved fluorescence resonance energy transfer (TR-FRET) was detected by an Infinite M1000 Pro (Tecan) using instrument settings from the LANCE cAMP Detection Kit manual. […] The agonistic properties of compounds were determined with an analogous procedure, but without stimulation with 5-CT [10, 36].

HepG2 cell line = test: Hepatotoxicity assay, HepG2 viability; assay type: cell-based; details: 1 μM, 72 h
Experimental: To estimate the hepatotoxicity of compounds, the hepatoma HepG2 (ATCC® HB-8065TM) cell line was used according to previously described protocols. The CellTiter 96® AQueous Non-Radioactive Cell Proliferation Assay was obtained from Promega (Madison, WI, USA). The compounds were tested in quadruplicate at four concentrations (1–100 µM) for 72 h.

5-HT6R = 5-HT6R (Homo sapiens, UniProt P50406); test: Radioligand binding assay, [3H]-LSD displacement
[4] = Metabolic stability, incubation with mouse liver microsomes; assay type: in vitro ADME; details: MLMs, 50 µM, 2 h
Experimental: The murine liver microsomes (MLMs) were purchased from Sigma-Aldrich (St. Louis, MO, USA). To determine metabolic pathways, the tested compounds (50 µM) were incubated with 100 mM Tris-HCl buffer at 37 °C with MLMs (1 mg/mL) and NADPH Regeneration System for 2 h. Reactions were quenched with cold, pure methanol and mixtures were centrifuged 14,000 g for 15 min. The supernatants were analyzed using LCMS. The additional MS ion fragmentation of the product and the substrate were performed to determine the most probable structure of the metabolite.

5-HT6 = test system: 5-HT6; set-up: method as in Dupuis et al. (2008) [31]; details: Figure 8; ref Dupuis et al. (2008) [31]; cited from earlier work
[5] = read-out: pKi 5-HT2A (converted)
[6] = antagonistic mode, 100 nM quinpirole, read-out: D2 Kb
[7] = antagonistic mode, 5-CT 1000 nM, read-out: 5-HT6 Kb

Sequence of 5-HT7R (P34969 1-432): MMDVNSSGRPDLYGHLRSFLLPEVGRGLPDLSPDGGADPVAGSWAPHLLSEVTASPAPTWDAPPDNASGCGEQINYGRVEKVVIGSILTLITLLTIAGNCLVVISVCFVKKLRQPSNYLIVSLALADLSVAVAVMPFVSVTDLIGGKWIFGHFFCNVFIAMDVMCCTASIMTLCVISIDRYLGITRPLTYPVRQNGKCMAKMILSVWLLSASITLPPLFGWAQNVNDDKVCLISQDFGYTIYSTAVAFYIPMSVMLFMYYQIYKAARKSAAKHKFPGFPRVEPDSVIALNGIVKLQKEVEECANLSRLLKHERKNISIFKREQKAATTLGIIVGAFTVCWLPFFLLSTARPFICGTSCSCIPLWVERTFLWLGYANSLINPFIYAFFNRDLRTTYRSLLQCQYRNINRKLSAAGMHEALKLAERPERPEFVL
T3 sequence (P14416 whole entry): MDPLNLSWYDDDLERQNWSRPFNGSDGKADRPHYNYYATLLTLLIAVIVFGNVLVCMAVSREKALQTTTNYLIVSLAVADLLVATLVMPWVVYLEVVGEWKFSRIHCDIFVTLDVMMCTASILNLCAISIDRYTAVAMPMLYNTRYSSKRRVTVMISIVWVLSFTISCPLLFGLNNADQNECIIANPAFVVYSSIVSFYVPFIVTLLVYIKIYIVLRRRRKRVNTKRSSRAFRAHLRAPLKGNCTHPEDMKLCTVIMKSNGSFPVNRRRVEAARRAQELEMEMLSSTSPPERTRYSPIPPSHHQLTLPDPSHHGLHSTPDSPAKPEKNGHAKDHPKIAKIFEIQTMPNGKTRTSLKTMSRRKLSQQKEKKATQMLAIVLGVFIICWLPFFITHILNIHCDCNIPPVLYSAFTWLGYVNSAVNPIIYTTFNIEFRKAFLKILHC
Sequence of 5-HT2AR (P28223 whole entry): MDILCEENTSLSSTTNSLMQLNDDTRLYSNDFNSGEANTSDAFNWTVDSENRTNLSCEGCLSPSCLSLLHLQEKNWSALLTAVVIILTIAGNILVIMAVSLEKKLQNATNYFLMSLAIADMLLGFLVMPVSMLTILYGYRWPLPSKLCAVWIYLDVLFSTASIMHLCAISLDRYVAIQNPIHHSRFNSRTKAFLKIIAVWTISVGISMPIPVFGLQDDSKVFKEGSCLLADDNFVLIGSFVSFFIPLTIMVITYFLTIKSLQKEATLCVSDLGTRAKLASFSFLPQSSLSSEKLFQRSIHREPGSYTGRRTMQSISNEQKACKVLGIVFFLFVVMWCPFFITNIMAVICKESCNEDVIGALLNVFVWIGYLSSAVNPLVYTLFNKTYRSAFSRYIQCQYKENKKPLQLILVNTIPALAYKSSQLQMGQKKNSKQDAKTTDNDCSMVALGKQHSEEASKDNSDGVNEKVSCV
Sequence of 5-HT6R (P50406 whole entry): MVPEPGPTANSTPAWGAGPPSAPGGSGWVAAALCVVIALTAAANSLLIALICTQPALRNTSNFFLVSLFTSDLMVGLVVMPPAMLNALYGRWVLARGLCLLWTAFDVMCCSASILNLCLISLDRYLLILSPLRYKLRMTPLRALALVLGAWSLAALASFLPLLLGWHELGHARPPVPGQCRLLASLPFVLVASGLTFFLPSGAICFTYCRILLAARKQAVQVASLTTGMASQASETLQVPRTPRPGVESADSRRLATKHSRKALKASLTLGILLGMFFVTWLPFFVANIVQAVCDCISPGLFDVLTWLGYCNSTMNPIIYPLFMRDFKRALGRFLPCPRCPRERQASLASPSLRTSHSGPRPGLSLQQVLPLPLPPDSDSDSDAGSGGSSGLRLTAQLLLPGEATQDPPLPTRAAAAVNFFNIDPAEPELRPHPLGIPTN
T4 sequence (P50406 whole entry): as above
T1 sequence (P08684 whole entry): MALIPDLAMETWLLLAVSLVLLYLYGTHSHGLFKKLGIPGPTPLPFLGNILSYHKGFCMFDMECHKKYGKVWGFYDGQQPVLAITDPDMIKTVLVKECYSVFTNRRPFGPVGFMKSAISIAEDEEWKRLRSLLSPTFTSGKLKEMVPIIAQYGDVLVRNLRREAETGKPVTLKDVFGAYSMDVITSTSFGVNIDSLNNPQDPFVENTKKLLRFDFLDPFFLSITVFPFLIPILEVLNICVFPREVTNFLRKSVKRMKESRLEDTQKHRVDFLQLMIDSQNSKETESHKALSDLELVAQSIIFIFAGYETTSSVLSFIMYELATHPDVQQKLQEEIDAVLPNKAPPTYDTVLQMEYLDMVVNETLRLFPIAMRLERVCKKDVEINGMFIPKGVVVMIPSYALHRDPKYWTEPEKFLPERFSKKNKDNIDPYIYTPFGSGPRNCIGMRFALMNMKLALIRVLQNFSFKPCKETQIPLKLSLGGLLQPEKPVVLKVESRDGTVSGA

| SMILES | Ki (5-HT2AR; [5]) [nM] | Ki (5-HT7R) [nM] | Ki (5-HT1AR; pKi 5-HT1A, Table 1) [nM] | Ki (D2R [2]; pKi D2, Table 1) [nM] | Ki (5-HT6R; pKi 5-HT6, Table 1) [nM] | other results |
| --- | --- | --- | --- | --- | --- | --- |
| Clc1cccc2c(CNCCc3c[nH]c4ccccc34)c[nH]c12 [Compound 17] | 3890 | 1070 | 282 | 51.3 | 363 | effect on CYP3A4 activity (CYP3A4): only slightly inhibited; Papp at 5 h, 200 µM (in vitro): 8.42 ± 0.27 ×10⁻⁶ cm/s; Kb (D2R [1]; [6]): 215 nM; Ki (D2R [2]; Ki D2, Figure 8): 51 nM; permeability in words [3]: medium permeability coefficients; Kb (Human Serotonin 5-HT6R; [7]): 234 nM; HepG2 cell viability (HepG2 cell line): ~ 80 % of the control; effect on HepG2 proliferation in words (HepG2 cell line): slight antiproliferative effect; Metabolic Pathway, metabolite M1 [4]: hydroxylation hydroxylation; Metabolic Pathway, metabolite M2 [4]: hydroxylation hydroxylation |
| Fc1cccc2c(CNCCc3c[nH]c4ccccc34)c[nH]c12 [Compound 16] | 1230 | 12900 | 5620 |  | 316 |  |
| Clc1ccc2c(CCNCc3c[nH]c4c(Cl)cccc34)c[nH]c2c1 [Compound 22] | 4070 | 13200 | 5620 | 5010 | 363 |  |
| Fc1cccc2c(CCNCc3c[nH]c4ccccc34)c[nH]c12 [Compound 6] | 380 | 10200 | 2750 | 2950 | 170 | Ki (5-HT6R; Ki 5-HT6, Figure 8): 168 nM |
| COc1ccc2[nH]cc(CCNCc3c[nH]c4cc(Cl)ccc34)c2c1 [Compound 21] | 174 | 813 | 186 | 1550 | 52.5 |  |
| Clc1ccc2[nH]cc(CCNCc3c[nH]c4ccccc34)c2c1 [Compound 4] |  |  |  | 2450 | 107 |  |
| Clc1ccc2[nH]cc(CNCCc3c[nH]c4ccccc34)c2c1 [Compound 11] | 3240 | 3800 | 676 | 2090 | 513 |  |
| Ic1ccc2[nH]cc(CNCCc3c[nH]c4ccccc34)c2c1 [Compound 12] | 2340 | 5130 | 490 | 2090 | 457 |  |
| c1ccc(COc2cccc3c(CNCCc4c[nH]c5ccccc45)c[nH]c23)cc1 [Compound 19] | 2290 | 11200 | 741 | 4070 | 302 | Ki (5-HT6R; Ki 5-HT6, Figure 8): 303 nM |
| Clc1cccc2c(CCNCc3c[nH]c4ccccc34)c[nH]c12 [Compound 7] | 631 | 25100 | 5130 | 11700 | 132 | Ki (5-HT6R; Ki 5-HT6, Figure 8): 133 nM |
| COc1ccc2[nH]cc(CCNCc3c[nH]c4c(Cl)cccc34)c2c1 [Compound 20] | 309 | 295 |  | 2340 | 97.7 | Ki (5-HT1AR): 79.4 nM |
| Fc1ccc2c(CNCCc3c[nH]c4ccccc34)c[nH]c2c1 [Compound 13] |  | 18200 |  | 302 | 224 | Ki (5-HT2AR; pKi 5-HT2A): 2570 nM; Ki (5-HT1AR): 1350 nM; EC50 (D2R [1]): 91 nM; Kb (D2R [1]): 91 nM; Ki (D2R [2]; Ki D2, Figure 8): 299 nM; Kb (Human Serotonin 5-HT6R): 30 nM; Ki (5-HT6R; Ki 5-HT6, Figure 8): 225 nM |
| Clc1ccc2c(CNCCc3c[nH]c4ccccc34)c[nH]c2c1 [Compound 14] | 468 | 15800 | 1070 | 123 | 89.1 | effect on CYP3A4 activity (CYP3A4): only slightly inhibited; Papp at 5 h, 200 µM (in vitro): 8.34 ± 1.33 ×10⁻⁶ cm/s; Kb (D2R [1]; [6]): 290 nM; Ki (D2R [2]; Ki D2, Figure 8): 124 nM; permeability in words [3]: medium permeability coefficients; Kb (Human Serotonin 5-HT6R; [7]): 112 nM; HepG2 cell viability (HepG2 cell line): ~ 80 % of the control; effect on HepG2 proliferation in words (HepG2 cell line): slight antiproliferative effect; Ki (5-HT6R; Ki 5-HT6, Figure 8): 90 nM; Metabolic Pathway, metabolite M1 [4]: hydroxylation hydroxylation; Metabolic Pathway, metabolite M2 [4]: hydroxylation hydroxylation |
| COc1ccc2[nH]cc(CCNCc3c[nH]c4ccccc34)c2c1 [Compound 3] |  | 562 | 155 |  | 117 | Ki (5-HT2AR; pKi 5-HT2A): 83.2 nM; Ki (5-HT1AR; Ki 5-HT1AR): 156 nM; pKi D2 (D2R [2]; Table 1): 6.49 |
| CCn1cc(C(=O)O)c(=O)c2cc(F)c(N3CCNCC3)cc21 [Norfloxacin, norfloxacin, reference compound] |  |  |  |  |  | PAMPA Pe ± SD ([3]; 5 h, 200 µM, pH 7.4): 0.56 10^−6 cm/s |
| Oc1ccc2[nH]cc(CNCCc3c[nH]c4ccccc34)c2c1 [Compound 9] | 1950 | 5130 | 2880 | 7590 | 2240 |  |
| Brc1cccc2c(CCNCc3c[nH]c4ccccc34)c[nH]c12 [Compound 8] | 776 | 20400 | 6030 | 3020 | 162 | Ki (5-HT6R; Ki 5-HT6, Figure 8): 161 nM |
| Fc1ccc2[nH]cc(CNCCc3c[nH]c4ccccc34)c2c1 [Compound 10] | 3470 | 4790 | 490 | 8510 | 407 |  |
| Cc1ccc2[nH]cc(CCNCc3c[nH]c4ccccc34)c2c1 [Compound 2] | 562 | 2950 | 692 | > 10000 | 129 |  |
